Data: patent publication US11851426B2, “Bicyclic amines as CDK2 inhibitors” (Incyte Corporation, priority 2019, dated 2023)

Each compound was assayed against CDK2/Cyclin E1 (Homo sapiens (Human), UniProt P24941) (assay: CDK2/Cyclin E1 HTRF enzyme activity assay). Conditions: 1 mM ATP; CDK2/Cyclin E1 0.25 nM; 60 minutes at room temperature.
Type: biochemical
Experimental: Example A. CDK2/Cyclin E1 HTRF Enzyme Activity Assay
CDK2/Cyclin E1 enzyme activity assays utilize full-length human CDK2 co-expressed as N-terminal GST-tagged protein with FLAG-Cyclin E1 in a baculovirus expression system (Carna Product Number 04-165). Assays were conducted in white 384-well polystyrene plates in a final reaction volume of 8 μL. CDK2/Cyclin E1 (0.25 nM) was incubated with the compounds of the Examples (40 nL serially diluted in DMSO) in the presence of ATP (50 μM or 1 mM) and 50 nM ULight™-labeled eIF4E-binding protein 1 (THR37/46) peptide (PerkinElmer) in assay buffer (containing 50 mM HEPES pH 7.5, 1 mM EGTA, 10 mM MgCl2, 2 mM DTT, 0.05 mg/mL BSA, and 0.01% Tween 20) for 60 minutes at room temperature. The reactions were stopped by the addition of EDTA and Europium-labeled anti-phospho-4E-BP1 antibody (PerkinElmer), for a final concentration of 15 mM and 1.5 nM, respectively. HTRF signals were read after 1 hour at room temperature on a PHERAstar FS plate reader (BMG Labtech). Data was analyzed with IDBS XLFit and GraphPad Prism 5.0 software using a three or four parameter dose response curve to determine IC50 for each compound.
`CC(C)Oc1c(-c2cn[nH]c2)ncn2nc(N[C@H]3CCN(S(=O)(=O)CCCCN4CC[C@@H](C(F)F)C4)C[C@H]3C)nc12` [Example 67, N-((3R,4S)-1-((4-((R)-3-(Difluoromethyl)pyrrolidin-1-yl)butyl)sulfonyl)-3-methylpiperidin-4-yl)-8-isopropoxy-7-(1H-pyrazol-4-yl)-[1,2,4]triazolo[1,5-c]pyrimidin-2-amine] showed an IC50 of no more than 20 nM. For `CCOc1c(-c2cn[nH]c2)ccn2nc(N[C@H]3CCN(S(C)(=O)=O)C[C@H]3C)nc12` [Example 12, 8-ethoxy-N-((3R,4S)-3-methyl-1-(methylsulfonyl)piperidin-4-yl)-7-(1H-pyrazol-4-yl)-[1,2,4]triazolo[1,5-a]pyridin-2-amine], the IC50 was no more than 20 nM. In the case of `C[C@@H]1CN(S(C)(=O)=O)CC[C@@H]1Nc1nc2cnc(-c3cn[nH]c3)c(OC3CC(C(F)F)C3)n2n1` (stereo partly drawn) [Example 108, 5-(3-(Difluoromethyl)cyclobutoxy)-N-((3R,4S)-3-methyl-1-(methylsulfonyl)piperidin-4-yl)-6-(1H-pyrazol-4-yl)-[1,2,4]triazolo[1,5-a]pyrazin-2-amine], the IC50 is reported as no more than 20 nM. For `C[C@@H]1CN(S(C)(=O)=O)CC[C@@H]1Nc1nc2cnc(-c3cn[nH]c3)c(OC3CCC(F)(F)CC3)n2n1` [Example 110, 5-((4,4-Difluorocyclohexyl)oxy)-N-((3R,4S)-3-methyl-1-(methylsulfonyl)piperidin-4-yl)-6-(1H-pyrazol-4-yl)-[1,2,4]triazolo[1,5-a]pyrazin-2-amine], the IC50 was no more than 20 nM. Work on `C[C@@H]1CN(S(C)(=O)=O)CC[C@@H]1Nc1nc2c(OC3CCOC3)c(-c3cn[nH]c3)ccn2n1` (stereo partly drawn) [Example 40, N-((3R,4S)-3-methyl-1-(methylsulfonyl)piperidin-4-yl)-7-(1H-pyrazol-4-yl)-8-((tetrahydrofuran-3-yl)oxy)-[1,2,4]triazolo[1,5-a]pyridin-2-amine] yielded an IC50 of no more than 20 nM. `CS(=O)(=O)N1CCC(Nc2nc3c(OCC(F)F)c(-c4cn[nH]c4)ccn3n2)CC1` [Example 9, 8-(2,2-difluoroethoxy)-N-(1-(methylsulfonyl)piperidin-4-yl)-7-(1H-pyrazol-4-yl)-[1,2,4]triazolo[1,5-a]pyridin-2-amine] gave an IC50 of no more than 20 nM. For `CS(=O)(=O)N1CCC(Nc2nc3c(N4CCCC4)c(-c4cn[nH]c4)ncn3n2)CC1` [Example 52, N-(1-(Methylsulfonyl)piperidin-4-yl)-7-(1H-pyrazol-4-yl)-8-(pyrrolidin-1-yl)-[1,2,4]triazolo[1,5-c]pyrimidin-2-amine], the IC50 was no more than 20 nM. In the case of `CC(C)Oc1c(-c2cn[nH]c2)ncn2nc(N[C@H]3CCN(S(=O)(=O)CCCN(C)C)C[C@H]3C)nc12` [Example 56, N-((3R,4S)-1-((3-(Dimethylamino)propyl)sulfonyl)-3-methylpiperidin-4-yl)-8-isopropoxy-7-(1H-pyrazol-4-yl)-[1,2,4]triazolo[1,5-c]pyrimidin-2-amine], the IC50 is reported as no more than 20 nM. `CS(=O)(=O)N1CCC(Nc2nc3c(OCC(F)F)c(-c4cn[nH]c4)ncn3n2)CC1` [Example 45, 8-(2,2-difluoroethoxy)-N-(1-(methylsulfonyl)piperidin-4-yl)-7-(1H-pyrazol-4-yl)-[1,2,4]triazolo[1,5-c]pyrimidin-2-amine] showed an IC50 of no more than 20 nM. `CS(=O)(=O)N1CCC(Nc2nc3c(OCC4CCOC4)c(-c4cn[nH]c4)ccn3n2)CC1` (stereo not drawn) [Example 11, N-(1-(methylsulfonyl)piperidin-4-yl)-7-(1H-pyrazol-4-yl)-8-((tetrahydrofuran-3-yl)methoxy)-[1,2,4]triazolo[1,5-a]pyridin-2-amine] was tested, and the IC50 was no more than 20 nM. With `C[C@H]1CCCCN1c1c(-c2cn[nH]c2)ncc2nc(NC3CCN(S(C)(=O)=O)CC3)nn12` [Example 132, (A)-5-(2-Methylpiperidin-1-yl)-N-(1-(methylsulfonyl)piperidin-4-yl)-6-(1H-pyrazol-4-yl)-[1,2,4]triazolo[1,5-a]pyrazin-2-amine] the IC50 was no more than 20 nM. `CS(=O)(=O)N1CCC(Nc2nc3c(N4CCCC(F)C4)c(-c4cn[nH]c4)ccn3n2)CC1` (stereo not drawn) [Example 31, 8-(3-fluoropiperidin-1-yl)-N-(1-(methylsulfonyl)piperidin-4-yl)-7-(1H-pyrazol-4-yl)-[1,2,4]triazolo[1,5-a]pyridin-2-amine] gave an IC50 of no more than 20 nM. With `C[C@@H]1CN(S(C)(=O)=O)CC[C@@H]1Nc1nc2ccc(-c3cn[nH]c3)c(OCC3CCC3)n2n1` [Example 76, 5-(Cyclobutylmethoxy)-N-((3R,4S)-3-methyl-1-(methylsulfonyl)piperidin-4-yl)-6-(1H-pyrazol-4-yl)-[1,2,4]triazolo[1,5-a]pyridin-2-amine] the IC50 was no more than 20 nM. Compound `CC(C)Oc1c(-c2cn[nH]c2)ncc2nc(N[C@H]3CCN(S(=O)(=O)C4CC4)C[C@H]3C)nn12` [Example 89, N-((3R,4S)-1-(Cyclopropylsulfonyl)-3-methylpiperidin-4-yl)-5-isopropoxy-6-(1H-pyrazol-4-yl)-[1,2,4]triazolo[1,5-a]pyrazin-2-amine] has an IC50 of no more than 20 nM. With `CCCCOc1c(-c2cn[nH]c2)ncn2nc(NC3CCN(S(C)(=O)=O)CC3)nc12` [Example 47, 8-Butoxy-N-(1-(methylsulfonyl)piperidin-4-yl)-7-(1H-pyrazol-4-yl)-[1.2.4]triazolo[1,5-c]pyrimidin-2-amine] the IC50 was no more than 20 nM. `C[C@@H]1CN(S(C)(=O)=O)CC[C@@H]1Nc1nc2ccc(-c3cn[nH]c3)c(N3CCCCC3)n2n1` [Example 83, N-((3R,4S)-3-Methyl-1-(methylsulfonyl)piperidin-4-yl)-5-(piperidin-1-yl)-6-(1H-pyrazol-4-yl)-[1,2,4]triazolo[1,5-a]pyridin-2-amine] was tested, and the IC50 was no more than 20 nM. Work on `C[C@@H]1CN(S(C)(=O)=O)CC[C@@H]1Nc1nc2ccc(-c3cn[nH]c3)c(OCC(F)(F)C(F)F)n2n1` [Example 73, N-((3R,4S)-3-Methyl-1-(methylsulfonyl)piperidin-4-yl)-6-(1H-pyrazol-4-yl)-5-(2,2,3,3-tetrafluoropropoxy)-[1,2,4]triazolo[1,5-a]pyridin-2-amine] yielded an IC50 of no more than 20 nM. `CCOc1c(-c2cn[nH]c2)ccn2nc(N[C@H]3CCN(S(=O)(=O)C4CC4)C[C@H]3C)nc12` [Example 13, N-((3R,4S)-1-(cyclopropylsulfonyl)-3-methylpiperidin-4-yl)-8-ethoxy-7-(1H-pyrazol-4-yl)-[1,2,4]triazolo[1,5-a]pyridin-2-amine] showed an IC50 of no more than 20 nM. Work on `CS(=O)(=O)N1CCC(Nc2nc3c(OCC4CC4)c(-c4cn[nH]c4)ccn3n2)CC1` [Example 4, 8-(cyclopropylmethoxy)-N-(1-(methylsulfonyl)piperidin-4-yl)-7-(1H-pyrazol-4-yl)-[1,2,4]triazolo[1,5-a]pyridin-2-amine] yielded an IC50 of no more than 20 nM. Compound `CS(=O)(=O)N1CCC(Nc2nc3cc(-c4cn[nH]c4)ccn3n2)CC1` [Example 1, N-(1-(methylsulfonyl)piperidin-4-yl)-7-(1H-pyrazol-4-yl)-[1.2.4]triazolo[1,5-a]pyridin-2-amine] has an IC50 of no more than 20 nM. `CS(=O)(=O)N1CCC(Nc2nc3cnc(-c4cn[nH]c4)c(N4CC[C@H](C(F)F)C4)n3n2)CC1` [Example 134, (S)-5-(3-(Difluoromethyl)pyrrolidin-1-yl)-N-(1-(methylsulfonyl)piperidin-4-yl)-6-(1H-pyrazol-4-yl)-[1,2,4]triazolo[1,5-a]pyrazin-2-amine] showed an IC50 of no more than 20 nM.
